Measurements reported in patent US6509328B1, “Glutamate receptor antagonists” (Hoffmann-La Roche Inc., priority 1999, dated 2003).

SMILES	melting point
CC(C)(C)C(=O)N1CC=C(C#Cc2ccc3c(c2)NC(=O)CC(c2cccc(C#N)c2)=N3)CC1 [Example 143, 3-{7-[1-(2,2-Dimethyl-propionyl)-1,2,3,6-tetrahydro-pyridin-4-ylethynyl]-4-oxo-4,5-dihydro-3H-benzo [b][1,4]diazepin-2-yl}-benzonitrile]	219 °C
Cc1cn(-c2cccc(C3=Nc4ccc(-c5ccccc5F)cc4NC(=O)C3)c2)c(C)n1 [Example 101, 4-[3-(2,4-Dimethyl-imidazol-1-yl)-phenyl]-8-(2-fluoro-phenyl)-1,3-dihydro-benzo[b][1,4]diazepin-2-one]	92 °C
O=C1CC(c2cccc(-n3ccnc3)c2)=Nc2ccc(-c3ccc(OCc4ccccc4)nc3)cc2N1 [Example 74, 8-(6-Benzyloxy-pyridin-3-yl)-4-(3-imidazol-1-yl-phenyl)-1,3-dihydro-benzo [b][1,4]-diazepin-2-one]	225 to 231 °C
Cc1ccc(C#Cc2ccc3c(c2)NC(=O)CC(c2cccc(C#N)c2)=N3)cc1 [Example 3, 3-(4-Oxo-7-p-tolylethynyl-4,5-dihydro-3H-benzo[b][1,4]diazepin-2-yl)-benzonitrile]	236 to 239 °C (dec.)
O=C1CC(c2sccc2Cl)=Nc2ccc(-c3ccc(F)cc3)cc2N1 [Example 91, 4-(3-Chloro-thiophen-2-yl)-8-(4-fluoro-phenyl)-1,3-dihydro-benzo [b][1,4]diazepin-2-one]	255 to 256 °C
Cc1ccc(-c2ccc3c(c2)NC(=O)CC(c2cccc(C#N)c2)=N3)cc1 [Example 22, 3-(4-Oxo-7-p-tolyl-4,5-dihydro-3H-benzo[b][1,4]diazepin-2-yl)-benzonitrile]	242 to 245 °C (dec.)
N#Cc1cccc(C2=Nc3ccc(-c4ccccc4Cl)cc3NC(=O)C2)c1 [Example 33, 3-[7-(2-Chloro-phenyl)-4-oxo-4,5-dihydro-3H-benzo [b][1,4]diazepin-2-yl]-benzonitrile]	240 to 244 °C (dec.)
N#Cc1cccc(C2=Nc3ccc(C#Cc4ccc(Cl)cc4)cc3NC(=O)C2)c1 [Example 16, 3-[7-(4-Chloro-phenylethynyl)-4-oxo-4,5-dihydro-3H-benzo[b][1,4]diazepin-2-yl]-benzonitrile]	237 to 240 °C (dec.)
O=C1CC(c2cccc(-n3ccnc3)c2)=Nc2ccc(C#Cc3ccccc3F)cc2N1 [Example 63, 8-(2-Fluoro-phenylethynyl)-4-(3-imidazol-1-yl-phenyl)-1,3-dihydro-benzo [b][1,4]diazepin-2-one]	201 to 203 °C
N#Cc1cccc(C2=Nc3ccc(-c4cc(F)ccc4F)cc3NC(=O)C2)c1 [Example 125, 3-[7-(2,5-Difluoro-phenyl)-4-oxo-4,5-dihydro-3H-benzo [b][1,4]diazepin-2-yl]-benzonitrile]	247 °C
N#Cc1cccc(C2=Nc3ccc(C#Cc4ccc(F)cc4F)cc3NC(=O)C2)c1 [Example 130, 3-[7-(2,4-Difluoro-phenylethynyl)-4-oxo-4,5-dihydro-3H-benzo [b][1,4]diazepin-2-yl]-benzonitrile]	240 to 246 °C
N#Cc1cccc(C2=Nc3ccc(-c4ccco4)cc3NC(=O)C2)c1 [Example 8, 3-(7-Furan-2-yl-4-oxo-4,5-dihydro-3H-benzo[b][1,4]diazepin-2-yl)-benzonitrile]	205 to 210 °C (dec.)
N#Cc1cccc(C2=Nc3ccc(C(=O)c4ccccc4)cc3NC(=O)C2)c1 [Example 36, 3-(7-Benzoyl-4-oxo-4,5-dihydro-3H-benzo [b][1,4]diazepin-2-yl)-benzonitrile]	207 °C (dec.)
N#Cc1cccc(C2=Nc3ccc(-c4ccc(Cl)c(Cl)c4)cc3NC(=O)C2)c1 [Example 31, 3-[7-(3,4-Dichloro-phenyl)-4-oxo-4,5-dihydro-3H-benzo [b][1,4]diazepin-2-yl]-benzonitrile]	252 to 255 °C (dec.)
COc1ccc(-c2ccc3c(c2)NC(=O)CC(c2cccc(C#N)c2)=N3)cc1 [Example 6, 3-[7-(4-Methoxy-phenyl)-4-oxo-4,5-dihydro-3H-benzo[b][1,4]diazepin-2-yl]-benzonitrile]	236 to 237 °C (dec.)
Cc1csc(-c2cccc(C3=Nc4ccc(-c5ccc(F)cc5)cc4NC(=O)C3)c2)n1 [Example 152, 8-(4-Fluoro-phenyl)-4-[3-(4-methyl-thiazol-2-yl)-phenyl]-1,3-dihydro-benzo [b][1,4]diazepin-2-one]	259 to 261 °C (dec.)
N#Cc1cccc(C2=Nc3ccc(-c4ccccc4)cc3NC(=O)C2)c1 [Example 10, 3-(4-Oxo-7-phenyl-4,5-dihydro-3H-benzo[b][1,4]diazepin-2-yl)-benzonitrile]	238 to 240 °C (dec.)
N#Cc1cccc(C2=Nc3ccc(C#Cc4ccc(OC(F)(F)F)cc4)cc3NC(=O)C2)c1 [Example 55, 3-[4-Oxo-7-(4-trifluoromethoxy-phenylethynyl)-4,5-dihydro-3H-benzo [b][1,4]diazepin-2-yl]-benzonitrile]	239 to 241 °C
Cc1nccn1-c1cccc(C2=Nc3ccc(-c4ccccc4F)cc3NC(=O)C2)c1 [Example 81, 8-(2-Fluoro-phenyl)-4-[3-(2-methyl-imidazol-1-yl)-phenyl]-1,3-dihydro-benzo[b][1,4]diazepin-2-one]	187 °C

SMILES	melting point
Cc1nccn1-c1cccc(C2=Nc3ccc(-c4ccc(F)cc4)cc3NC(=O)C2)c1 [Example 82, 8-(4-Fluoro-phenyl)-4-[3-(2-methyl-imidazol-1-yl)-phenyl]-1,3-dihydro-benzo[b][1,4]diazepin-2-one]	227 °C
C#Cc1cccc(C2=Nc3ccc(C#Cc4ccccc4)cc3NC(=O)C2)c1 [Example 133, 4-(3-Ethynyl-phenyl)-8-phenylethynyl-1,3-dihydro-benzo[b][1,4]diazepin-2-one]	> 250 °C (dec.)
O=C1CC(c2ccnc(-c3nc(CO)cs3)c2)=Nc2ccc(-c3ccc(F)cc3)cc2N1 [Example 158, 8-(4-Fluoro-phenyl)-4-[2-(4-hydroxymethyl-thiazol-2-yl)-pyridin-4-yl]-1,3-dihydro-benzo[b][1,4]diazepin-2-one]	225 to 229 °C
O=C1CC(c2ccncc2)=Nc2ccc(C#Cc3ccccc3)cc2N1 [Example 12, 8-Phenylethynyl-4-pyridin-4-yl-1,3-dihydro-benzo[b][1,4]diazepin-2-one]	198 to 200 °C (dec.)
N#Cc1cccc(C2=Nc3ccc(-c4cccc5ccccc45)cc3NC(=O)C2)c1 [Example 20, 3-(7-Naphthalen-1-yl-4-oxo-4,5-dihydro-3H-benzo[b][1,4]diazepin-2-yl)-benzonitrile]	240 to 245 °C (dec.)
N#Cc1cccc(C2=Nc3ccc(C#CC4=CCOCC4)cc3NC(=O)C2)c1 [Example 138, 3-[7-(3,6-Dihydro-2H-pyran-4-ylethynyl)-4-oxo-4,5-dihydro-3H-benzo [b][1,4]diazepin-2-yl]-benzonitrile]	238 °C
N#Cc1cccc(C2=Nc3ccc(C#Cc4ccc(F)cc4)cc3NC(=O)C2)c1 [Example 145, 3-[7-(4-Fluoro-phenylethynyl)-4-oxo-4,5-dihydro-3H-benzo [b][1,4]diazepin-2-yl]-benzonitrile]	245 to 246 °C
N#Cc1cccc(C2=Nc3ccc(-c4cccc(F)c4F)cc3NC(=O)C2)c1 [Example 51, 3-[7-(2,3-Difluoro-phenyl)-4-oxo-4,5-dihydro-3H-benzo [b][1,4]diazepin-2-yl]-benzonitrile]	240 °C
Nc1cccc(C2=Nc3ccc(-c4ccc(F)cc4)cc3NC(=O)C2)c1 [Example 70, 4-(3-Amino-phenyl)-8-(4-fluoro-phenyl)-1,3-dihydro-benzo [b][1,4]diazepin-2-one]	210 to 217 °C (dec.)
O=C1CC(c2sccc2Cl)=Nc2ccc(-c3ccccn3)cc2N1 [Example 23, 4-(3-Chloro-thiophen-2-yl)-8-pyridin-2-yl-1,3-dihydro-benzo[b][1,4]diazepin-2-one]	220 to 225 °C (dec.)
N#Cc1cccc(C2=Nc3ccc(-c4ccc(-c5ccccc5)cc4)cc3NC(=O)C2)c1 [Example 54, 3-(7-Biphenyl-4-yl-4-oxo-4,5-dihydro-3H-benzo [b][1,4]diazepin-2-yl)-benzonitrile]	251 to 253 °C
O=C1CC(c2cccs2)=Nc2ccc(-c3ccc(=O)[nH]c3)cc2N1 [Example 41, 8-(6-Oxo-1,6-dihydro-pyridin-3-yl)-4-thiophen-2-yl-1,3-dihydro-benzo [b][1,4]diazepin-2-one]	> 250 °C
NC(=S)c1cccc(C2=Nc3ccc(-c4ccc(F)cc4)cc3NC(=O)C2)c1 [Example 149, 3-[7-(4-Fluoro-phenyl)-4-oxo-4,5-dihydro-3H-benzo [b][1,4]diazepin-2-yl]-thiobenzamide]	267 to 270 °C (dec.)
O=C1CC(c2ccsc2)=Nc2ccc(-c3ccccc3)cc2N1 [Example 29, 8-Phenyl-4-thiophen-3-yl-1,3-dihydro-benzo [b][1,4]diazepin-2-one]	233 °C (dec.)
C[Si](C)(C)C#Cc1cccc(C2=Nc3ccc(C#Cc4ccccc4)cc3NC(=O)C2)c1	169 to 171 °C (dec.)
CCc1ccc(-c2ccc3c(c2)NC(=O)CC(c2cccc(C#N)c2)=N3)cc1 [Example 9, 3-[7-(4-Ethyl-phenyl)-4-oxo-4,5-dihydro-3H-benzo[b][1,4]diazepin-2-yl]-benzonitrile]	225 to 229 °C (dec.)
N#Cc1cccc(C2=Nc3ccc(CCc4ccccc4)cc3NC(=O)C2)c1 [Example 108, 3-(4-Oxo-7-phenethyl-4,5-dihydro-3H-benzo[b][1,4]diazepin-2-yl)-benzonitrile]	212 to 214 °C
N#Cc1ccc(F)c(C2=Nc3ccc(-c4ccccc4F)cc3NC(=O)C2)c1 [Example 103, 4-Fluoro-3-[7-(2-fluoro-phenyl)-4-oxo-4,5-dihydro-3H-benzo [b][1,4]diazepin-2-yl]-benzonitrile]	239 °C
Cc1cn(-c2nc(C3=Nc4ccc(-c5ccccc5F)cc4NC(=O)C3)cs2)cn1 [Example 106, 8-(2-Fluoro-phenyl)-4-[2-(4-methyl-imidazol-1-yl)-thiazol-4-yl]-1,3-dihydro-benzo[b][1,4]diazepin-2-one]	229 °C
